Test results published in patent US20050123553A1, “Amyloid beta-peptide and methods of use” (priority 2003, published 2005).

Assays:
[1] = system: Aβ1-42-reactive T-cell lines; assay: Epitope mapping / proliferation of Aβ1-42-reactive T-cell lines; format: cell-based, human; details: for Distribution of Aβ T-cell epitopes: Number of T-cell lines / Distribution of Aβ T-cell epitopes: percent: lines from 24 subjects, fine mapping with 15 amino acid overlapping peptides
Description: Epitope specificity of these 3 T-cell lines using 5 overlapping peptides within Aβ15-42 was further investigated.
(§1) T-cell lines were then supplemented with 10 μg/ml IL-2 after 48 hours and every 2 days thereafter until they were completely resting. T-cell proliferation was measured 72 hours after stimulation following a 12 hr incubation with [^3H]-thymidine. Supernatants were collected 48 hr after T-cell stimulation, and antigen-induced cytokine production was measured by sandwich ELISA. Recommended pairs of antibodies (coating and detecting) for IL-10 (R&D, Minneapolis, Minn.), INF-γ. Endogen, Woburn, Mass.), IL-13 (PharMingen, (San Diego, Calif.), and TGF-β (Promega, Madison, Wis.) were used according to the manufacturer's instructions. Surface and intracellular staining was performed on Aβ-reactive T-cells after stimulation. All antibodies were purchased from BD Biosciences (San Diego, Calif.) and staining was performed according to the manufacturer's instructions.

[2] = system: Aβ16-30-specific T cells; assay: Proliferation of Aβ16-30-specific T cells with alanine/glycine-substituted peptides; format: cell-based, human; details: for T-cell proliferation, average cpm: 72 hr
From the text: Because the T-cell epitopes were most frequently localized to Aβ16-30, we further mapped this epitope for each of its constituent amino acids by using alanine-substituted peptides in the T-cell proliferation assay (the naturally occurring alanines at positions 21 and 30 were changed to glycines). […] Substitution of lysine-16, alanine-21, serine-26 or aspargine-27 increased T-cell proliferation by more than 2-fold (Table 4).
In this experiment, T cells specific to Aβ16-30 were stimulated in the presence of alanine/glycine substituted peptides and autologous PBMCs. T-cell proliferation was measured by [^3H]-thymidine incorporation 72 hr after stimulation. Numbers represent average cpm of each antigen concentration tested (average cpm in the absence of antigen was 911).
as §1

[3] = system: popliteal draining lymph nodes (PLN) T cells; assay: Lymph node T-cell proliferation after immunization of mice with Aβ in CFA; format: cell-based, mouse; details: for T-cell proliferation across the peptide series Aβ7-21 to Aβ10-24: SJL mice immunized with rodent Aβ1-42; for T-cell proliferation with overlapping peptides: SJL-derived lymphocyte cultures, immunized with human Aβ1-42

Question: With “Aβ19-33: nested Aβ peptide, residues 19-33 (FFAEDVGSNKGAIIG)” as the substance, how does the “location of T-cell epitopes” value ([1]; T-cell line DRB1 1501/1101, 5 overlapping peptides within Aβ15-42) read?
Answer: mainly located

Question: “Glu 22 Ala: Aβ16-30 peptide with glutamic acid-22 substituted by alanine (KLVFFAADVGSNKGA; Amyloid-beta protein 42; UniProt P05067 687-701, looked up, variant E22A)” was tested. Which “T-cell proliferation, average cpm” value ([2]; Peptide 0.1 μg/ml) did it give?
Answer: 1145 cpm

Question: And the “T-cell proliferation, average cpm” value ([2]; Peptide 1 μg/ml)?
Answer: 840 cpm

Question: What about the “T-cell proliferation, average cpm” value ([2]; Peptide 10 μg/ml) of the same substance?
Answer: 517 cpm

Question: And the “effect of substitution on T-cell proliferation” value (“effect of substitution” for short) ([2]; at all 3 concentrations used)?
Answer: blocked or significantly decreased

Question: “Ser 26 Ala: Aβ16-30 peptide with serine-26 substituted by alanine (KLVFFAEDVGANKGA; Amyloid-beta protein 42; UniProt P05067 687-701, looked up, variant S26A)” was tested. Which “T-cell proliferation, average cpm” value ([2]; Peptide 0.1 μg/ml) did it give?
Answer: 18808 cpm

Question: And the “T-cell proliferation, average cpm” value ([2]; Peptide 1 μg/ml)?
Answer: 36287 cpm

Question: And the “T-cell proliferation, average cpm” value ([2]; Peptide 10 μg/ml)?
Answer: 38335 cpm

Question: For “Gly 25 Ala: Aβ16-30 peptide with Gly 25 substituted by alanine (KLVFFAEDVASNKGA; Amyloid-beta protein 42; UniProt P05067 687-701, looked up, variant G25A)”, which “T-cell proliferation, average cpm” value ([2]; Peptide 0.1 μg/ml) is on record?
Answer: 2426 cpm

Question: What about the “T-cell proliferation, average cpm” value ([2]; Peptide 1 μg/ml) of the same substance?
Answer: 13763 cpm

Question: And the “T-cell proliferation, average cpm” value ([2]; Peptide 10 μg/ml)?
Answer: 24979 cpm

Question: With “Aβ7-21: nested Aβ peptide, residues 7-21 (DSGYEVHHQKLVFFA; Amyloid-beta protein 42; UniProt P05067 678-692, looked up, fragment)” as the substance, how does the “Distribution of Aβ T-cell epitopes: Number of T-cell lines” value [1] read?
Answer: 1

Question: What about the “Distribution of Aβ T-cell epitopes: percent” value [1] of the same substance?
Answer: 4%

Question: And the T-cell proliferation ([3]; NOD mice immunized with Aβ1-42)?
Answer: slight T-cell proliferation

Question: What about the “T-cell proliferation across the peptide series Aβ7-21 to Aβ10-24” value [3] of the same substance?
Answer: gradual increase

Question: What about the “T-cell proliferation with overlapping peptides” value [3] of the same substance?
Answer: induced T-cell proliferation

Question: Which “T-cell proliferation, average cpm” value ([2]; Peptide 0.1 μg/ml) does the source give for “Phe 19 Ala: Aβ16-30 peptide with phenylalanine-19 substituted by alanine (KLVAFAEDVGSNKGA; Amyloid-beta protein 42; UniProt P05067 687-701, looked up, variant F19A)” here?
Answer: 986 cpm

Question: What about the “T-cell proliferation, average cpm” value ([2]; Peptide 1 μg/ml) of the same substance?
Answer: 4354 cpm

Question: What about the “T-cell proliferation, average cpm” value ([2]; Peptide 10 μg/ml) of the same substance?
Answer: 17943 cpm

Question: What about the “effect of substitution” value ([2]; only at 0.1 or 1 μg/ml) of the same substance?
Answer: inhibitory effects

Question: With “Ala 21 Gly: Aβ16-30 peptide with alanine 21 changed to glycine (KLVFFGEDVGSNKGA; Amyloid-beta protein 42; UniProt P05067 687-701, looked up, variant A21G)” as the substance, how does the “T-cell proliferation, average cpm” value ([2]; Peptide 0.1 μg/ml) read?
Answer: 12901 cpm

Question: And the “T-cell proliferation, average cpm” value ([2]; Peptide 1 μg/ml)?
Answer: 29634 cpm

Question: What about the “T-cell proliferation, average cpm” value ([2]; Peptide 10 μg/ml) of the same substance?
Answer: 36448 cpm

Question: For “Leu 17 Ala: Aβ16-30 peptide with Leu 17 substituted by alanine (KAVFFAEDVGSNKGA; Amyloid-beta protein 42; UniProt P05067 687-701, looked up, variant L17A)”, which “T-cell proliferation, average cpm” value ([2]; Peptide 0.1 μg/ml) is on record?
Answer: 2242 cpm

Question: What about the “T-cell proliferation, average cpm” value ([2]; Peptide 1 μg/ml) of the same substance?
Answer: 11805 cpm

Question: And the “T-cell proliferation, average cpm” value ([2]; Peptide 10 μg/ml)?
Answer: 24480 cpm

Question: Which results are given for “Lys 28 Ala: Aβ16-30 peptide with Lys 28 substituted by alanine (KLVFFAEDVGSNAGA; Amyloid-beta protein 42; UniProt P05067 687-701, looked up, variant K28A)”?
Answer: T-cell proliferation, average cpm ([2]; Peptide 0.1 μg/ml): 5050 cpm; T-cell proliferation, average cpm ([2]; Peptide 1 μg/ml): 15475 cpm; T-cell proliferation, average cpm ([2]; Peptide 10 μg/ml): 29156 cpm

Question: For “Ala 30 Gly: Aβ16-30 peptide with alanine 30 changed to glycine (KLVFFAEDVGSNKGG; Amyloid-beta protein 42; UniProt P05067 687-701, looked up, variant A30G)”, which “T-cell proliferation, average cpm” value ([2]; Peptide 0.1 μg/ml) is on record?
Answer: 2123 cpm

Question: And the “T-cell proliferation, average cpm” value ([2]; Peptide 1 μg/ml)?
Answer: 12027 cpm

Question: What about the “T-cell proliferation, average cpm” value ([2]; Peptide 10 μg/ml) of the same substance?
Answer: 15395 cpm

Question: Which “T-cell proliferation, average cpm” value ([2]; Peptide 0.1 μg/ml) does the source give for “Val 24 Ala: Aβ16-30 peptide with valine-24 substituted by alanine (KLVFFAEDAGSNKGA; Amyloid-beta protein 42; UniProt P05067 687-701, looked up, variant V24A)” here?
Answer: 944 cpm

Question: And the “T-cell proliferation, average cpm” value ([2]; Peptide 1 μg/ml)?
Answer: 6160 cpm

Question: And the “T-cell proliferation, average cpm” value ([2]; Peptide 10 μg/ml)?
Answer: 19869 cpm

Question: What about the “effect of substitution” value ([2]; only at 0.1 or 1 μg/ml) of the same substance?
Answer: inhibitory effects

Question: How did the “T-cell proliferation, average cpm” value ([2]; Peptide 0.1 μg/ml) turn out when “Asn 27 Ala: Aβ16-30 peptide with asparagine-27 substituted by alanine (KLVFFAEDVGSAKGA; Amyloid-beta protein 42; UniProt P05067 687-701, looked up, variant N27A)” was run?
Answer: 23636 cpm

Question: And the “T-cell proliferation, average cpm” value ([2]; Peptide 1 μg/ml)?
Answer: 36588 cpm

Question: What about the “T-cell proliferation, average cpm” value ([2]; Peptide 10 μg/ml) of the same substance?
Answer: 34983 cpm

Question: What does the source list for “Asp 23 Ala: Aβ16-30 peptide with aspartic acid-23 substituted by alanine (KLVFFAEAVGSNKGA; Amyloid-beta protein 42; UniProt P05067 687-701, looked up, variant D23A)”?
Answer: T-cell proliferation, average cpm ([2]; Peptide 0.1 μg/ml): 1145 cpm; T-cell proliferation, average cpm ([2]; Peptide 1 μg/ml): 1685 cpm; T-cell proliferation, average cpm ([2]; Peptide 10 μg/ml): 612 cpm; effect of substitution on T-cell proliferation ([2]; at all 3 concentrations used): blocked or significantly decreased

Question: How did the “T-cell proliferation, average cpm” value ([2]; Peptide 0.1 μg/ml) turn out when “Val 18 Ala: Aβ16-30 peptide with Val 18 substituted by alanine (KLAFFAEDVGSNKGA; Amyloid-beta protein 42; UniProt P05067 687-701, looked up, variant V18A)” was run?
Answer: 7216 cpm

Question: And the “T-cell proliferation, average cpm” value ([2]; Peptide 1 μg/ml)?
Answer: 17427 cpm

Question: And the “T-cell proliferation, average cpm” value ([2]; Peptide 10 μg/ml)?
Answer: 26814 cpm

Question: For “Aβ8-22: Aβ peptide, residues 8-22 (SGYEVHHQKLVFFAE; Amyloid-beta protein 42; UniProt P05067 679-693, looked up, fragment)”, which “T-cell proliferation across the peptide series Aβ7-21 to Aβ10-24” value [3] is on record?
Answer: gradual increase

Question: For “Aβ28-42: nested Aβ peptide, residues 28-42 (KGAIIGLMVGGVVIA; Amyloid-beta protein 42; UniProt P05067 699-713, looked up, fragment)”, which “Distribution of Aβ T-cell epitopes: Number of T-cell lines” value [1] is on record?
Answer: 5

Question: And the “Distribution of Aβ T-cell epitopes: percent” value [1]?
Answer: 20%

Question: What does the source list for “Phe 20 Ala: Aβ16-30 peptide with phenylalanine-20 substituted by alanine (KLVFAAEDVGSNKGA; Amyloid-beta protein 42; UniProt P05067 687-701, looked up, variant F20A)”?
Answer: T-cell proliferation, average cpm ([2]; Peptide 0.1 μg/ml): 1188 cpm; T-cell proliferation, average cpm ([2]; Peptide 1 μg/ml): 2239 cpm; T-cell proliferation, average cpm ([2]; Peptide 10 μg/ml): 4216 cpm; effect of substitution on T-cell proliferation ([2]; at all 3 concentrations used): blocked or significantly decreased

Question: Which “T-cell proliferation, average cpm” value ([2]; Peptide 0.1 μg/ml) does the source give for “Lys 16 Ala: Aβ16-30 peptide with lysine-16 substituted by alanine (ALVFFAEDVGSNKGA; Amyloid-beta protein 42; UniProt P05067 687-701, looked up, variant K16A)” here?
Answer: 5357 cpm

Question: And the “T-cell proliferation, average cpm” value ([2]; Peptide 1 μg/ml)?
Answer: 22304 cpm

Question: What about the “T-cell proliferation, average cpm” value ([2]; Peptide 10 μg/ml) of the same substance?
Answer: 36456 cpm

Question: With “Aβ13-27: nested Aβ peptide, residues 13-27 (HHQKLVFFAEDVGSN; Amyloid-beta protein 42; UniProt P05067 684-698, looked up, fragment)” as the substance, how does the “T-cell proliferation with overlapping peptides” value [3] read?
Answer: induced T-cell proliferation

Question: What does the source list for “Gly 29 Ala: Aβ16-30 peptide with glycine-29 substituted by alanine (KLVFFAEDVGSNKAA; Amyloid-beta protein 42; UniProt P05067 687-701, looked up, variant G29A)”?
Answer: T-cell proliferation, average cpm ([2]; Peptide 0.1 μg/ml): 622 cpm; T-cell proliferation, average cpm ([2]; Peptide 1 μg/ml): 3014 cpm; T-cell proliferation, average cpm ([2]; Peptide 10 μg/ml): 14513 cpm; effect of substitution on T-cell proliferation ([2]; only at 0.1 or 1 μg/ml): inhibitory effects
